Assay results reported in PMC12587545, “Noncytotoxic polymyxin derivatives enhance antibiotic action against multidrug-resistant Gram-negative bacteria” (Antimicrobial Agents and Chemotherapy, 2025).
Where “and” joins values, the source holds several entries; their conditions need not be identical. Equal entries are not always repeated.

Columns and labels:
E. coli = experiment: Checkerboard assay (antibiotic potentiation); type: cell-based, Escherichia coli; conditions: for MICantibiotic + compound: antibiotic MIC with 8 µg/mL (5 µM) compound 1; for MICantibiotic: antibiotic alone; for Potentiation: of antibiotic by 8 µg/mL (5 µM) compound 1
Procedure: (§1) The interaction between the compounds and the antibiotics was evaluated using the fractional inhibitory concentration (FIC) index. FIC indices of ≤0.5 is synergistic, 0.5 < × ≤ 4 is additive, whereas >4 is antagonistic ([34]).
(§2) Synergy was measured by the FIC index, which is the summation of the individual FICs of the antibiotic and the compound. The FIC is calculated by dividing the MIC of one agent in the presence of another by the MIC of the agent alone. […] The FBS studies were conducted by following a previously published protocol ([29], [50]). The FBS was inactivated by heating at 56°C for 30 min with constant swirling.

[1] = system: MDR Gram-negative bacteria clinical isolates; experiment: Checkerboard assay, summary over strains; type: cell-based; conditions: of all 14 clinical isolates; number (%)
Procedure: as §1
(§3) The antibiotic and compounds were serially diluted 2-fold in CAMHB along the x- and y-axis, respectively, on a 96-well plate that was subsequently incubated with equal volumes of bacterial inoculum overnight at 37°C. Wells containing only media were used as negative controls, and wells containing only bacteria were used as positive controls. Synergy was measured by the FIC index, which is the summation of the individual FICs of the antibiotic and the compound. The FIC is calculated by dividing the MIC of one agent in the presence of another by the MIC of the agent alone. Turbidity was confirmed with a Molecular Devices (United States) EMax Plus microplate reader at a wavelength of 590 nm. The FBS studies were conducted by following a previously published protocol ([29], [50]). The FBS was inactivated by heating at 56°C for 30 min with constant swirling.

E. cloacae = experiment: Checkerboard assay (antibiotic potentiation); type: cell-based, Enterobacter cloacae; conditions: E. cloacae 121887 (colistin-resistant)
Procedure: (§4) The interaction between the compounds and the antibiotics was evaluated using the fractional inhibitory concentration (FIC) index. FIC indices of ≤0.5 is synergistic, 0.5 < × ≤ 4 is additive, whereas >4 is antagonistic ([34]). […] .
(§5) The bacterial isolates were acquired from ATCC or the Canadian Ward Surveillance (CANWARD) study ([56]). CANWARD isolates were collected from infected patients admitted to participating medical centers across Canada.
as §3

A. baumannii = experiment: Checkerboard assay (antibiotic potentiation); type: cell-based, Acinetobacter baumannii; parameters: key to FIC index: sum of FICs; ≤0.5 synergistic, 0.5–4 additive, >4 antagonistic; conditions: for MICantibiotic: antibiotic alone
Procedure: as §4, §5, §3

P. aeruginosa = experiment: Checkerboard assay (antibiotic potentiation); type: cell-based, Pseudomonas aeruginosa; conditions: for MICantibiotic: antibiotic alone
Procedure: as §1, §2

K. pneumoniae = experiment: Checkerboard assay (antibiotic potentiation); type: cell-based, Klebsiella pneumoniae; conditions: for Interpretation: antibiotic + compound 1; for MICantibiotic + compound: antibiotic MIC with 8 µg/mL (5 µM) compound 1; for MICantibiotic: antibiotic alone; for Potentiation: of antibiotic by 8 µg/mL (5 µM) compound 1
Procedure: as §1, §2

[2] = E. coli 94393 (colistin-resistant)
[3] = E. coli 94474 (colistin-resistant)
[4] = A. baumannii 110193, antibiotic + compound 1
[5] = A. baumannii ATCC 17978, antibiotic + compound 1
[6] = P. aeruginosa 262-101856, antibiotic + compound 1
[7] = K. pneumoniae 113250 (colistin-resistant)

MICantibiotic + compound (E. coli; [2]): 1 µg/mL
MICantibiotic (E. coli; [2]): >2 µg/mL
MICantibiotic + compound (E. coli; [3]): 8 µg/mL
MICantibiotic (E. coli; [3]): 16 µg/mL
MICantibiotic + compound (E. cloacae; antibiotic MIC with 8 µg/mL (5 µM) compound 1): 16 µg/mL
MICantibiotic (E. cloacae; antibiotic alone): 16 µg/mL
MICantibiotic + compound (A. baumannii; A. baumannii 92247 (colistin-resistant), antibiotic MIC with 4 µg/mL (2 µM) compound 1): 0.063 µg/mL
MICantibiotic (A. baumannii; A. baumannii 92247 (colistin-resistant)): 0.063 µg/mL
MICantibiotic + compound (A. baumannii; A. baumannii 110193, antibiotic MIC with 4 µg/mL (2 µM) compound 1): 0.25 µg/mL
MICantibiotic (A. baumannii; A. baumannii 110193): 0.25 µg/mL
MICantibiotic + compound (A. baumannii; A. baumannii AB027, antibiotic MIC with 4 µg/mL (2 µM) compound 1): 4 µg/mL
MICantibiotic (A. baumannii; A. baumannii AB027): 8 µg/mL
MICantibiotic + compound (A. baumannii; A. baumannii AB031, antibiotic MIC with 4 µg/mL (2 µM) compound 1): 0.125 µg/mL
MICantibiotic (A. baumannii; A. baumannii AB031): 0.25 µg/mL
MICantibiotic + compound (A. baumannii; A. baumannii ATCC 17978, antibiotic MIC with 8 µg/mL (5 µM) compound 3): 0.125 µg/mL
MICantibiotic + compound (A. baumannii; A. baumannii ATCC 17978, antibiotic MIC with ¼ MIC (≤5 µM) of compound 1): 0.063 µg/mL
MICantibiotic (A. baumannii; A. baumannii ATCC 17978): 0.125 µg/mL
MICantibiotic + compound (P. aeruginosa; P. aeruginosa 259-96916, antibiotic MIC with 8 µg/mL (5 µM) compound 1): 16 µg/mL
MICantibiotic (P. aeruginosa; P. aeruginosa 259-96916): 512 µg/mL
MICantibiotic + compound (P. aeruginosa; P. aeruginosa 262-101856, antibiotic MIC with 8 µg/mL (5 µM) compound 1): 4 µg/mL
MICantibiotic (P. aeruginosa; P. aeruginosa 262-101856): >64 µg/mL
MICantibiotic + compound (P. aeruginosa; P. aeruginosa 264-105354, antibiotic MIC with 8 µg/mL (5 µM) compound 1): 4 µg/mL
MICantibiotic (P. aeruginosa; P. aeruginosa 264-105354): 64 µg/mL
MICantibiotic + compound (P. aeruginosa; P. aeruginosa 101243 (colistin-resistant), antibiotic MIC with 8 µg/mL (5 µM) compound 1): 16 µg/mL
MICantibiotic (P. aeruginosa; P. aeruginosa 101243 (colistin-resistant)): 128 µg/mL
MICantibiotic + compound (P. aeruginosa; P. aeruginosa 114228 (colistin-resistant), antibiotic MIC with 8 µg/mL (5 µM) compound 1): 2 µg/mL
MICantibiotic (P. aeruginosa; P. aeruginosa 114228 (colistin-resistant)): 2 µg/mL
MICantibiotic + compound (P. aeruginosa; P. aeruginosa PAO1, antibiotic MIC with 8 µg/mL (5 µM) compound 1): 0.125 µg/mL
MICantibiotic + compound (P. aeruginosa; P. aeruginosa PAO1, antibiotic MIC with 8 µg/mL (5 µM) compound 3): 1 µg/mL
MICantibiotic (P. aeruginosa; P. aeruginosa PAO1): 1 µg/mL and 0.5 µg/mL
MICantibiotic + compound (K. pneumoniae; [7]): 0.063 µg/mL
MICantibiotic (K. pneumoniae; [7]): 0.063 µg/mL
MICantibiotic + compound (K. pneumoniae; K. pneumoniae 116381): 4 µg/mL
MICantibiotic (K. pneumoniae; K. pneumoniae 116381): 256 µg/mL
Structure (SMILES): C[C@H]1COc2c(N3CCN(C)CC3)c(F)cc3c(=O)c(C(=O)O)cn1c23 [Levofloxacin]
FIC index (E. coli; E. coli 94393 (colistin-resistant), antibiotic + compound 1): x < 0.563
Potentiation (E. coli; [2]): ≥4-fold
Interpretation (E. coli; E. coli 94474 (colistin-resistant), antibiotic + compound 1): Additive (0.5 < × ≤ 4 is additive)
Potentiation (E. coli; [3]): 2 fold
clinical isolates in which the antibiotic was synergized by compound 1 [1]: 5 (36%) strains
Interpretation (E. cloacae; antibiotic + compound 1): Additive (0.5 < × ≤ 4 is additive)
Potentiation (E. cloacae; of antibiotic by 8 µg/mL (5 µM) compound 1): 1 fold
Interpretation (A. baumannii; A. baumannii 92247 (colistin-resistant), antibiotic + compound 1): Additive (0.5 < × ≤ 4 is additive)
Potentiation (A. baumannii; A. baumannii 92247 (colistin-resistant), of antibiotic by 4 µg/mL (2 µM) compound 1): 1 fold
FIC index (A. baumannii; [4]): 1.125
Interpretation (A. baumannii; [4]): Additive (0.5 < × ≤ 4 is additive)
Potentiation (A. baumannii; A. baumannii 110193, of antibiotic by 4 µg/mL (2 µM) compound 1): 1 fold
Interpretation (A. baumannii; A. baumannii AB027, antibiotic + compound 1): Additive (0.5 < × ≤ 4 is additive)
Potentiation (A. baumannii; A. baumannii AB027, of antibiotic by 4 µg/mL (2 µM) compound 1): 2 fold
Interpretation (A. baumannii; A. baumannii AB031, antibiotic + compound 1): Additive (0.5 < × ≤ 4 is additive)
Potentiation (A. baumannii; A. baumannii AB031, of antibiotic by 4 µg/mL (2 µM) compound 1): 2 fold
FIC index (A. baumannii; [5]): 0.650
Interpretation (A. baumannii; [5]): Additive (0.5 < × ≤ 4 is additive)
Interpretation (A. baumannii; A. baumannii ATCC 17978, antibiotic + compound 3): Additive (0.5 < × ≤ 4 is additive)
Potentiation (A. baumannii; A. baumannii ATCC 17978, of antibiotic by 8 µg/mL (5 µM) compound 3): 1 fold
Potentiation (A. baumannii; A. baumannii ATCC 17978, of antibiotic by ¼ MIC (≤5 µM) of compound 1): 2 fold
Interpretation (P. aeruginosa; P. aeruginosa 259-96916, antibiotic + compound 1): Synergy (FIC indices of ≤0.5 is synergistic)
Potentiation (P. aeruginosa; P. aeruginosa 259-96916, of antibiotic by 8 µg/mL (5 µM) compound 1): 32 fold
FIC index (P. aeruginosa; [6]): x < 0.125
Interpretation (P. aeruginosa; [6]): Synergy (FIC indices of ≤0.5 is synergistic)
Potentiation (P. aeruginosa; P. aeruginosa 262-101856, of antibiotic by 8 µg/mL (5 µM) compound 1): ≥32-fold
Interpretation (P. aeruginosa; P. aeruginosa 264-105354, antibiotic + compound 1): Synergy (FIC indices of ≤0.5 is synergistic)
Potentiation (P. aeruginosa; P. aeruginosa 264-105354, of antibiotic by 8 µg/mL (5 µM) compound 1): 16 fold
Interpretation (P. aeruginosa; P. aeruginosa 101243 (colistin-resistant), antibiotic + compound 1): Synergy (FIC indices of ≤0.5 is synergistic)
Potentiation (P. aeruginosa; P. aeruginosa 101243 (colistin-resistant), of antibiotic by 8 µg/mL (5 µM) compound 1): 8 fold
Interpretation (P. aeruginosa; P. aeruginosa 114228 (colistin-resistant), antibiotic + compound 1): Additive (0.5 < × ≤ 4 is additive)
Potentiation (P. aeruginosa; P. aeruginosa 114228 (colistin-resistant), of antibiotic by 8 µg/mL (5 µM) compound 1): 1 fold
Interpretation (P. aeruginosa; P. aeruginosa PAO1, antibiotic + compound 1): Synergy (FIC indices of ≤0.5 is synergistic)
Interpretation (P. aeruginosa; P. aeruginosa PAO1, antibiotic + compound 3): Additive (0.5 < × ≤ 4 is additive)
Potentiation (P. aeruginosa; P. aeruginosa PAO1, of antibiotic by 8 µg/mL (5 µM) compound 1): 4 fold
Potentiation (P. aeruginosa; P. aeruginosa PAO1, of antibiotic by 8 µg/mL (5 µM) compound 3): 1 fold
Interpretation (K. pneumoniae; [7]): Additive (0.5 < × ≤ 4 is additive)
Potentiation (K. pneumoniae; [7]): 1 fold
Interpretation (K. pneumoniae; K. pneumoniae 116381): Synergy (FIC indices of ≤0.5 is synergistic)
Potentiation (K. pneumoniae; K. pneumoniae 116381): 64 fold
